Experimental data from PubChem BioAssay AID1963958 (Molecular Pharmacology Branch, DTP, NCI, 2024).
pIC50: −log10 of the molar value.

Test system: MDA-MB-231 multicell spheroids, viability
Experiment: Anticancer human tumor MDA-MB-231 cell line growth inhibition [PI3K];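 also: spheroids exposed to agents for seven days before reading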;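 as to viability, T/C: percent of vehicle control luminescence with DMSO treated spheroids as 100%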
Details: for pIC50: curve of first compound; for viability, T/C: stronger effect = lower value; active = viability on the fitted dose curve at most 10% of control; inactive = the rest
Procedure, shortened: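 Viability of mixed-cell spheroids was determined after exposure to pairwise combinations, one partner being inavolisib, alpelisib, duvelisib or copanlisib. Highest tested concentration matched clinical Cmax where known and 10 microM where not, descending in half-log steps.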

[1] = second compound 0.00316 µM, first compound 0.0316 µM
[2] = second compound 0.00316 µM, first compound 0.1 µM
[3] = second compound 0.01 µM, first compound 0.0316 µM
[4] = second compound 0.01 µM, first compound 0.1 µM
[5] = second compound 0.0316 µM, first compound 0.0316 µM
[6] = second compound 0.0316 µM, first compound 0.1 µM
[7] = second compound 0.1 µM, first compound 0.0316 µM
[8] = second compound 0.1 µM, first compound 0.1 µM
[9] = second compound 0.316 µM, first compound 0.0316 µM
[10] = second compound 0.316 µM, first compound 0.1 µM
[11] = second compound 1 µM, first compound 0.0316 µM
[12] = second compound 1 µM, first compound 0.1 µM
[13] = second compound 0.00316 µM, first compound 0.316 µM
[14] = second compound 0.00316 µM, first compound 1 µM
[15] = second compound 0.00316 µM, first compound 3.16 µM
[16] = second compound 0.00316 µM, first compound 10 µM
[17] = second compound 0.01 µM, first compound 0.316 µM
[18] = second compound 0.01 µM, first compound 1 µM
[19] = second compound 0.01 µM, first compound 3.16 µM
[20] = second compound 0.01 µM, first compound 10 µM
[21] = second compound 0.0316 µM, first compound 0.316 µM
[22] = second compound 0.0316 µM, first compound 1 µM
[23] = second compound 0.0316 µM, first compound 3.16 µM
[24] = second compound 0.0316 µM, first compound 10 µM
[25] = second compound 0.1 µM, first compound 0.316 µM
[26] = second compound 0.1 µM, first compound 1 µM
[27] = second compound 0.1 µM, first compound 3.16 µM
[28] = second compound 0.1 µM, first compound 10 µM
[29] = second compound 0.316 µM, first compound 0.316 µM
[30] = second compound 0.316 µM, first compound 1 µM
[31] = second compound 0.316 µM, first compound 3.16 µM
[32] = second compound 0.316 µM, first compound 10 µM
[33] = second compound 1 µM, first compound 0.316 µM
[34] = second compound 1 µM, first compound 1 µM
[35] = second compound 1 µM, first compound 3.16 µM
[36] = second compound 1 µM, first compound 10 µM

CC(C)n1nc(-c2ccc3oc(N)nc3c2)c2c(N)ncnc21 + COc1c(OCCCN2CCOCC2)ccc2c3n(c(=NC(=O)c4cnc(N)nc4)nc12)CCN3
7.71: pIC50 (second compound 0.01 µM)
inactive: viability, T/C (second compound 0.00316 µM, first compound 0.000316 µM) 98.6% | viability, T/C (second compound 0.00316 µM, first compound 0.001 µM) 93.6% | viability, T/C (second compound 0.00316 µM, first compound 0.00316 µM) 83.9% | viability, T/C (second compound 0.00316 µM, first compound 0.01 µM) 76.1% | viability, T/C [1] 55.6% | viability, T/C [2] 36.9% | viability, T/C (second compound 0.01 µM, first compound 0.000316 µM) 78.3% | viability, T/C (second compound 0.01 µM, first compound 0.001 µM) 78.5% | viability, T/C (second compound 0.01 µM, first compound 0.00316 µM) 68.8% | viability, T/C (second compound 0.01 µM, first compound 0.01 µM) 58.3% | viability, T/C [3] 44.3% | viability, T/C [4] 29.1% | viability, T/C (second compound 0.0316 µM, first compound 0.000316 µM) 57.7% | viability, T/C (second compound 0.0316 µM, first compound 0.001 µM) 59.3% | viability, T/C (second compound 0.0316 µM, first compound 0.00316 µM) 54.4% | viability, T/C (second compound 0.0316 µM, first compound 0.01 µM) 44.2% | viability, T/C [5] 32.2% | viability, T/C [6] 21.4% | viability, T/C (second compound 0.1 µM, first compound 0.000316 µM) 47% | viability, T/C (second compound 0.1 µM, first compound 0.001 µM) 45.8% | viability, T/C (second compound 0.1 µM, first compound 0.00316 µM) 40.1% | viability, T/C (second compound 0.1 µM, first compound 0.01 µM) 34.7% | viability, T/C [7] 26.6% | viability, T/C [8] 19.8% | viability, T/C (second compound 0.316 µM, first compound 0.000316 µM) 34.2% | viability, T/C (second compound 0.316 µM, first compound 0.001 µM) 31.5% | viability, T/C (second compound 0.316 µM, first compound 0.00316 µM) 28.9% | viability, T/C (second compound 0.316 µM, first compound 0.01 µM) 25.4% | viability, T/C [9] 21.9% | viability, T/C [10] 18.5% | viability, T/C (second compound 1 µM, first compound 0.000316 µM) 26% | viability, T/C (second compound 1 µM, first compound 0.001 µM) 23.9% | viability, T/C (second compound 1 µM, first compound 0.00316 µM) 23.8% | viability, T/C (second compound 1 µM, first compound 0.01 µM) 23% | viability, T/C [11] 24.5% | viability, T/C [12] 22.5%
> 9.50: pIC50 (second compound 0.1 µM) | pIC50 (second compound 0.316 µM) | pIC50 (second compound 1 µM)
8.27: pIC50 (second compound 0.0316 µM)
7.33: pIC50 (second compound 0.00316 µM)

CC1(C)CCC(CN2CCN(c3ccc(C(=O)NS(=O)(=O)c4ccc(NCC5CCOCC5)c([N+](=O)[O-])c4)c(Oc4cnc5[nH]ccc5c4)c3)CC2)=C(c2ccc(Cl)cc2)C1 + COc1c(OCCCN2CCOCC2)ccc2c3n(c(=NC(=O)c4cnc(N)nc4)nc12)CCN3
< 5.00: pIC50 (second compound 0.00316 µM) | pIC50 (second compound 0.01 µM) | pIC50 (second compound 0.0316 µM)
> 7.50: pIC50 (second compound 0.1 µM) | pIC50 (second compound 0.316 µM) | pIC50 (second compound 1 µM)
inactive: viability, T/C [1] 100% | viability, T/C [2] 96.4% | viability, T/C [13] 96.8% | viability, T/C [14] 104% | viability, T/C [15] 102% | viability, T/C [16] 104% | viability, T/C [3] 82.1% | viability, T/C [4] 80.1% | viability, T/C [17] 85% | viability, T/C [18] 91.1% | viability, T/C [19] 85.2% | viability, T/C [20] 83.9% | viability, T/C [5] 65.9% | viability, T/C [6] 66.4% | viability, T/C [21] 65.2% | viability, T/C [22] 65.7% | viability, T/C [23] 67.4% | viability, T/C [24] 66.5% | viability, T/C [7] 46.2% | viability, T/C [8] 45.6% | viability, T/C [25] 48.1% | viability, T/C [26] 47.7% | viability, T/C [27] 48.9% | viability, T/C [28] 44.9% | viability, T/C [9] 35.6% | viability, T/C [10] 34.8% | viability, T/C [29] 36.1% | viability, T/C [30] 35.3% | viability, T/C [31] 35.8% | viability, T/C [32] 33.6% | viability, T/C [11] 25.7% | viability, T/C [12] 26.2% | viability, T/C [33] 24.5% | viability, T/C [34] 23.9% | viability, T/C [35] 25.1% | viability, T/C [36] 22.2%

C[C@@H](NC(=O)c1ncnc(N)c1Cl)c1ncc(C(=O)Nc2cc(C(F)(F)F)c(Cl)cn2)s1 + COc1c(OCCCN2CCOCC2)ccc2c3n(c(=NC(=O)c4cnc(N)nc4)nc12)CCN3
5.76: pIC50 (second compound 0.0316 µM)
6.87: pIC50 (second compound 0.1 µM)
inactive: viability, T/C [1] 123% | viability, T/C [2] 110% | viability, T/C [13] 100% | viability, T/C [14] 84.2% | viability, T/C [15] 71% | viability, T/C [16] 59.1% | viability, T/C [3] 108% | viability, T/C [4] 90.4% | viability, T/C [17] 81.6% | viability, T/C [18] 65.7% | viability, T/C [19] 59.8% | viability, T/C [20] 52.5% | viability, T/C [5] 75.9% | viability, T/C [6] 72.9% | viability, T/C [21] 61.5% | viability, T/C [22] 54.5% | viability, T/C [23] 45.9% | viability, T/C [24] 39.9% | viability, T/C [7] 61% | viability, T/C [8] 49.6% | viability, T/C [25] 45.4% | viability, T/C [26] 39.4% | viability, T/C [27] 34.2% | viability, T/C [28] 28.3% | viability, T/C [9] 38.8% | viability, T/C [10] 35.3% | viability, T/C [29] 29.4% | viability, T/C [30] 23.4% | viability, T/C [31] 20.3% | viability, T/C [32] 15.9% | viability, T/C [11] 33.4% | viability, T/C [12] 25.4% | viability, T/C [33] 23.2% | viability, T/C [34] 18.2% | viability, T/C [35] 15.3% | viability, T/C [36] 10.6%
> 7.50: pIC50 (second compound 0.316 µM) | pIC50 (second compound 1 µM)
< 5.00: pIC50 (second compound 0.00316 µM) | pIC50 (second compound 0.01 µM)
